These results are taken from patent US6727232B2, “Nucleoside peptide antibiotics of AA-896” (Wyeth Holdings Corporation, priority 2001, dated 2004).

≈ marks a conversion by molar mass, not a printed value. Where only a bound is given, the exact number is not on record here.

Assay in all cases: Broth dilution MIC
What all share (assay type): cell-based
(Broth dilution looks for growth in wells or tubes with falling amounts of substance.)

One assay relates to P. aeruginosa GC 4532. Conditions: Pseudomonas aeruginosa, GC4532; P. aeruginosa GC 4532; Mueller-Hinton broth, 18 hours at 35° C.; read-out: Antimicrobial Activity (MIC). On the procedure:
(§1) The in vitro antibacterial activity of Example 1 through Example 20 is determined against a spectrum of Gram-positive and Gram-negative bacteria by a standard broth dilution method. Serial dilution of the compounds are made in Mueller-Hinton broth and inoculated with a bacterial suspension. The lowest concentration of compound that inhibited the growth of a bacterial strain after 18 hours of incubation at 35° C. is reported as the minimal inhibitory concentration (MIC) for that strain.

The next assay relates to E. coli GC 4560. Conditions: Escherichia coli, GC4560, 18 h, read-out: Antimicrobial Activity (MIC). The method, then:
as §1

In another assay the test system is E. faecalis GC 2242. Conditions: Enterococcus faecalis, GC2242; E. faecalis GC 2242; Mueller-Hinton broth, 18 hours at 35° C.; read-out: Antimicrobial Activity (MIC). The method, then: as §1
The next assay deals with S. aureus GC 2216. Conditions: Staphylococcus aureus, GC2216; S. aureus GC 2216; Mueller-Hinton broth, 18 hours at 35° C.; read-out: Antimicrobial Activity (MIC). On the procedure: as §1
A further assay deals with E. cloacae GC 3783. Conditions: Enterobacter cloacae, GC3783; E. cloacae GC 3783; Mueller-Hinton broth, 18 hours at 35° C.; read-out: Antimicrobial Activity (MIC). The method, then: as §1
The subject of a further assay is K. pneumoniae GC 4534. Conditions: Klebsiella pneumoniae, GC4534; K. pneumoniae GC 4534; Mueller-Hinton broth, 18 hours at 35° C.; read-out: Antimicrobial Activity (MIC). The method, then: as §1
In a further assay the test system is CNS GC 4538. The settings on record: CNS GC 4538; Mueller-Hinton broth, 18 hours at 35° C.; read-out: Antimicrobial Activity (MIC). The method, then: as §1
The test system of another assay is P. rettgeri GC 4530. Conditions: Providencia rettgeri, GC4530; P. rettgeri GC 4530; Mueller-Hinton broth, 18 hours at 35° C.; read-out: Antimicrobial Activity (MIC). The method, then:
as §1

The subject of the next assay is S. aureus GC 1131. The settings on record: Staphylococcus aureus, GC1131; S. aureus GC 1131; Mueller-Hinton broth, 18 hours at 35° C.; read-out: Antimicrobial Activity (MIC). The method, then:
as §1

In the next assay the test system is E. faecalis GC 4555. The settings on record: Enterococcus faecalis, GC4555; E. faecalis GC 4555; Mueller-Hinton broth, 18 hours at 35° C.; read-out: Antimicrobial Activity (MIC). On the procedure: as §1
Another assay concerns E. coli GC 2203. Conditions: Escherichia coli, GC2203; E. coli GC 2203; Mueller-Hinton broth, 18 hours at 35° C.; read-out: Antimicrobial Activity (MIC). On the procedure: as §1
For a further assay, the system named is S. marcescens GC 4077. Conditions: Serratia marcescens, GC4077; S. marcescens GC 4077; Mueller-Hinton broth, 18 hours at 35° C.; read-out: Antimicrobial Activity (MIC). The method, then:
as §1

The test system of a further assay is CNS GC 4547. The settings on record: CNS GC 4547; Mueller-Hinton broth, 18 hours at 35° C.; read-out: Antimicrobial Activity (MIC). On the procedure:
as §1

Another assay deals with E. coli GC 3226. The settings on record: Escherichia coli, GC3226; E. coli GC 3226; Mueller-Hinton broth, 18 hours at 35° C.; read-out: Antimicrobial Activity (MIC). The method, then: as §1
The subject of the next assay is E. coli GC 4559. The settings on record: Escherichia coli, GC4559; E. coli GC 4559; Mueller-Hinton broth, 18 hours at 35° C.; read-out: Antimicrobial Activity (MIC). The method, then:
as §1

The test system of a further assay is M. morganii GC 4531. Conditions: Morganella morganii, GC4531; M. morganii GC 4531; Mueller-Hinton broth, 18 hours at 35° C.; read-out: Antimicrobial Activity (MIC). The method, then:
as §1

A further assay deals with S. aureus GC 4536. The settings on record: Staphylococcus aureus, GC4536; S. aureus GC 4536; Mueller-Hinton broth, 18 hours at 35° C.; read-out: Antimicrobial Activity (MIC). The method, then:
as §1

The subject of a further assay is E. faecalis GC 842. Conditions: Enterococcus faecalis, GC842; E. faecalis GC 842; Mueller-Hinton broth, 18 hours at 35° C.; read-out: Antimicrobial Activity (MIC). The method, then: as §1
For the next assay, the system named is P. aeruginosa GC 2214. The settings on record: Pseudomonas aeruginosa, GC2214; P. aeruginosa GC 2214; Mueller-Hinton broth, 18 hours at 35° C.; read-out: Antimicrobial Activity (MIC). The method, then: as §1
A further assay has as its system CNS GC 4537. The settings on record: CNS GC 4537; Mueller-Hinton broth, 18 hours at 35° C.; read-out: Antimicrobial Activity (MIC). On the procedure:
as §1

The term MIC denotes the least concentration at which growth counts as inhibited. On to `CCCCCN1C(=O)C([C@@H](OC2O[C@H](CN)[C@H](O)[C@H]2OC)[C@H]2O[C@@H](n3ccc(=O)[nH]c3=O)[C@H](O)[C@@H]2O)N(CCCNC(=O)C(NC(=O)C(NC(=O)NC(C(=O)O)C(C)C)C2CCNC(=N)N2)C(O)C(C)C)C1=O` (stereo partly drawn) [Example 2, 14-[5-((R)-{[(3R,4S,5R)-5-(Aminomethyl)-4-hydroxy-3-methoxytetrahydro-2furanyl]oxy}{(2S,3S,4R,5R)-5-[2,4-dioxo-3,4-dihydro-1 (2H)-pyrimidinyl]-3,4-dihydroxytetrahydro-2-furanyl}methyl)-2,4-dioxo-3-pentyl-1-imidazolidinyl]-9-(1-hydroxy-2-methylpropyl)-6-(2-iminohexahydro-4-pyrimidinyl)-2-isopropyl-4,7,10-trioxo-3,5,8,11-tetraazatetradecan-1-oic acid], for which the minimum inhibitory concentration (MIC) is greater than 32 µg/mL in the assay with P. aeruginosa GC 4532; 32 µg/mL (≈ 30.7 µM) in the assay with E. coli GC 4560; greater than 32 µg/mL in the assay with E. faecalis GC 2242; greater than 32 µg/mL with S. aureus GC 2216; greater than 32 µg/mL in the assay with E. cloacae GC 3783; greater than 32 µg/mL with K. pneumoniae GC 4534. Besides, the minimum inhibitory concentration (MIC) with CNS GC 4538, in the assay with P. rettgeri GC 4530, in the assay on S. aureus GC 1131, in the assay on E. faecalis GC 4555, in the assay with E. coli GC 2203 and in the assay with S. marcescens GC 4077 was greater than 32 µg/mL throughout. For the same compound, the minimum inhibitory concentration (MIC) in the assay on CNS GC 4547, in the assay on E. coli GC 3226, with E. coli GC 4559, in the assay on M. morganii GC 4531, with S. aureus GC 4536 and in the assay on E. faecalis GC 842 was greater than 32 µg/mL in each case. The MIC in the assay with P. aeruginosa GC 2214 and in the assay on CNS GC 4537 was greater than 32 µg/mL throughout.

With `CCCCCCN1C(=O)C([C@@H](OC2O[C@H](CN)[C@H](O)[C@H]2OC)[C@H]2O[C@@H](n3ccc(=O)[nH]c3=O)[C@H](O)[C@@H]2O)N(CCCNC(=O)C(NC(=O)C(NC(=O)NC(C(=O)O)C(C)C)C2CCNC(=N)N2)C(O)C(C)C)C1=O` (stereo partly drawn) [Example 3, 14-[5-((R)-{[(3R,4S,5R)-5-(Aminomethyl)-4-hydroxy-3-methoxytetrahydro-2-furanyl]oxy}{(2S,3S,4R,5R)-5-[2,4-dioxo-3,4-dihydro-1 (2H)-pyrimidinyl]-3,4-dihydroxytetrahydro-2-furanyl}methyl)-3-hexyl-2,4-dioxo-1-imidazolidinyl]-9-(1-hydroxy-2-methylpropyl)-6-(2-iminohexahydro-4-pyrimidinyl)-2-isopropyl-4,7,10-trioxo-3,5,8,11-tetraazatetradecan-1-oic acid], the MIC is greater than 32 µg/mL in the assay with P. aeruginosa GC 4532; 32 µg/mL (≈ 30.3 µM) in the assay on E. coli GC 4560; greater than 32 µg/mL in the assay with E. faecalis GC 2242; greater than 32 µg/mL in the assay with S. aureus GC 2216; greater than 32 µg/mL in the assay on E. cloacae GC 3783; greater than 32 µg/mL in the assay on K. pneumoniae GC 4534. Moreover, the MIC with CNS GC 4538, in the assay on P. rettgeri GC 4530, in the assay with S. aureus GC 1131, in the assay on E. faecalis GC 4555, in the assay with E. coli GC 2203 and in the assay with S. marcescens GC 4077 was greater than 32 µg/mL in each case. The minimum inhibitory concentration (MIC) in the assay with CNS GC 4547, in the assay on E. coli GC 3226, in the assay with E. coli GC 4559, in the assay on M. morganii GC 4531, with S. aureus GC 4536 and with E. faecalis GC 842 was greater than 32 µg/mL throughout. In addition, the MIC in the assay with P. aeruginosa GC 2214 and in the assay on CNS GC 4537 was greater than 32 µg/mL throughout.

In the case of `COc1ccc(N2C(=O)C([C@@H](OC3O[C@H](CN)[C@H](O)[C@H]3OC)[C@H]3O[C@@H](n4ccc(=O)[nH]c4=O)[C@H](O)[C@@H]3O)N(CCCNC(=O)C(NC(=O)C(NC(=O)NC(C(=O)O)C(C)C)C3CCNC(=N)N3)C(O)C(C)C)C2=O)cc1` (stereo partly drawn) [Example 4, 14-[5-((R)-{[(3R,4S,5R)-5-(Aminomethyl)-4-hydroxy-3-methoxytetrahydro-2-furanyl]oxy}{(2S,3S,4R,5R)-5-[2,4-dioxo-3,4-dihydro-1 (2H)-pyrimidinyl]-3,4-dihydroxytetrahydro-2-furanyl}methyl)-3-(4-methoxyphenyl)-2,4-dioxo-1-imidazolidinyl]-9-(1-hydroxy-2-methylpropyl)-6-(2-iminohexahydro-4-pyrimidinyl)-2-isopropyl-4,7,10-trioxo-3,5,8,11-tetraazatetradecan-1-oic acid], the minimum inhibitory concentration (MIC) in the assay with P. aeruginosa GC 4532, in the assay with E. coli GC 4560, with E. faecalis GC 2242, in the assay with S. aureus GC 2216, in the assay on E. cloacae GC 3783 and in the assay with K. pneumoniae GC 4534 was greater than 32 µg/mL in each case. Also, the MIC with CNS GC 4538, with P. rettgeri GC 4530, with S. aureus GC 1131, with E. faecalis GC 4555, in the assay with E. coli GC 2203 and in the assay on S. marcescens GC 4077 was greater than 32 µg/mL throughout. For the same compound, the minimal inhibitory concentration (MIC) in the assay with CNS GC 4547, in the assay on E. coli GC 3226, in the assay with E. coli GC 4559, with M. morganii GC 4531, in the assay with S. aureus GC 4536 and in the assay on E. faecalis GC 842 was greater than 32 µg/mL in each case. Besides, the MIC with P. aeruginosa GC 2214 and with CNS GC 4537 was greater than 32 µg/mL each time.

Regarding `CCCCCCCCCCCCN1C(=O)C([C@@H](OC2O[C@H](CN)[C@H](O)[C@H]2OC)[C@H]2O[C@@H](n3ccc(=O)[nH]c3=O)[C@H](O)[C@@H]2O)N(CCCNC(=O)C(NC(=O)C(NC(=O)NC(C(=O)O)C(C)C)C2CCNC(=N)N2)C(O)C(C)C)C1=O` (stereo partly drawn) [Example 5, 14-[5-((R)-{[(3R,4S,5R)-5-(Aminomethyl)-4-hydroxy-3-methoxytetrahydro-2-furanyl]oxy}{(2S,3S,4R,5R)-5-[2,4-dioxo-3,4-dihydro-1 (2H)-pyrimidinyl]-3,4-dihydroxytetrahydro-2-furanyl}methyl)-3-dodecyl-2,4-dioxo-1-imidazolidinyl]-9-(1-hydroxy-2-methylpropyl)-6-(2-iminohexahydro-4-pyrimidinyl)-2-isopropyl-4,7,10-trioxo-3,5,8,11-tetraazatetradecan-1-oic acid], the minimum inhibitory concentration (MIC) was greater than 32 µg/mL with P. aeruginosa GC 4532; 4 µg/mL (≈ 3.51 µM) in the assay with E. coli GC 4560; greater than 32 µg/mL in the assay on E. faecalis GC 2242; greater than 32 µg/mL in the assay on S. aureus GC 2216; greater than 32 µg/mL in the assay on E. cloacae GC 3783; greater than 32 µg/mL with K. pneumoniae GC 4534. The MIC in the assay with CNS GC 4538, with P. rettgeri GC 4530, in the assay with S. aureus GC 1131, in the assay with E. faecalis GC 4555, with E. coli GC 2203 and in the assay on S. marcescens GC 4077 was greater than 32 µg/mL throughout. In addition, the minimum inhibitory concentration (MIC) in the assay with CNS GC 4547, in the assay with E. coli GC 3226, with E. coli GC 4559, with M. morganii GC 4531, in the assay with S. aureus GC 4536 and in the assay with E. faecalis GC 842 was greater than 32 µg/mL in each case. The MIC with P. aeruginosa GC 2214 and in the assay on CNS GC 4537 was greater than 32 µg/mL each time.
